{"source": "patent US8003610B2", "about": "“Bradykinin B2 receptor antagonist peptide from amphibian skin” (priority 2003, dated 2011)", "key": {"[1]": {"tested_on": "human microvascular endothelial cell line (HMEC-1)", "assay": "proliferation of endothelial cell line", "assay_type": "cell-based", "settings": "FIG. 11", "from_the_text": "FIG. 11 is a graph comparing the effect of control (▪), kinestsin (Q-9-R-(-7) (▴) and fumagillin (▾) on the proliferation of the human microvascular endothelial cell line (HMEC-1)."}, "[2]": {"tested_on": "rat tail artery smooth muscle", "assay": "direct relaxation of phenylephrine pre-constricted rat tail artery preparation", "settings": "synthetic replicate, in the effective molar concentration range of bradykinin, FIG. 4A", "protocol": "Male albino Wistar rats (200-250 g) were euthanised by asphyxiation followed by cervical dislocation. The tail artery was prepared as described previously (Chen T et al, Peptides. 2002; 23:1547-1555, Chen T et al, Eur. J. Biochem. 2002; 269:4693-4700, Hirst et al Br. J. Radiol. 1994; 67:795-799). After perfusion of arterial preparations with 1×10^−5M phenylephrine to obtain constriction plateaux, relative relaxation was recorded as described below following applications of reconstituted 100 μl aliquots of HPLC fraction samples (1-240) from B. maxima skin secretion. This was carried out to exclude those fractions (25) containing direct arterial smooth muscle relaxant activity. […] Changes in arterial smooth muscle tone were measured by a pressure transducer system and the percentage relative relaxations induced by bradykinin in the presence of reconstituted fractions were calculated using the MacLab computer package.\nArterial smooth muscle preparations were prepared as described previously and treated with phenylephrine (1×10^−5M) until constriction plateaux were achieved. […] 2) The effect of prior addition of a range of concentrations of kinestatin on the observed activity of subsequently added bradykinin at its maximally effective concentration (10^−6M) was determined. […] During a 20 min perfusion period, changes in arterial pressure were recorded as described previously. […]"}, "bradykinin B2 receptors": {"molecular_target": "T1, bradykinin B2 receptors (Rattus norvegicus, UniProt P25023)", "T1 construct": "phenylephrine pre-constricted rat tail artery preparation; from tissue; host or cells: rat tail artery (arterial smooth muscle preparation)", "T1 sequence (P25023 1-396)": "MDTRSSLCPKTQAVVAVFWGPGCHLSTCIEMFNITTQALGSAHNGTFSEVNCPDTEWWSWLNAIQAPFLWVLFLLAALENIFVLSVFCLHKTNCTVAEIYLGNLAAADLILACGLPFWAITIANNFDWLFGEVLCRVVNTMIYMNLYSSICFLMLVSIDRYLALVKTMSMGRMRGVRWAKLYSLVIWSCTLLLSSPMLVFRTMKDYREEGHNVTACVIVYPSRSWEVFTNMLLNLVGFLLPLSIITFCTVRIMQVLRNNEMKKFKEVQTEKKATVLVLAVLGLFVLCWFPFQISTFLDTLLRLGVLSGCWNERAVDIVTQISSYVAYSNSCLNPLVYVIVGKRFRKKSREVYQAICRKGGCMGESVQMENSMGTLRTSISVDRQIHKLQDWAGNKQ", "assay": "inhibition of bradykinin-induced relaxation in phenylephrine pre-constricted rat tail artery preparation", "protocol": "Male albino Wistar rats (200-250 g) were euthanised by asphyxiation followed by cervical dislocation. The tail artery was prepared as described previously (Chen T et al, Peptides. 2002; 23:1547-1555, Chen T et al, Eur. J. Biochem. 2002; 269:4693-4700, Hirst et al Br. J. Radiol. 1994; 67:795-799). After perfusion of arterial preparations with 1×10^−5M phenylephrine to obtain constriction plateaux, relative relaxation was recorded as described below following applications of reconstituted 100 μl aliquots of HPLC fraction samples (1-240) from B. maxima skin secretion. […] The preparations were perfused as before with phenylephrine (1×10^−5M) until constriction plateaux were obtained. Following this, combinations of phenylephrine (1×10^−5M) and reconstituted non-myoactive fractions were perfused through individual preparations for 20 min. Immediately after this, the perfusate was replaced by a combination of phenylephrine (1×10^−5M), bradykinin (1×10^−6M) and reconstituted individual fractions. Changes in arterial smooth muscle tone were measured by a pressure transducer system and the percentage relative relaxations induced by bradykinin in the presence of reconstituted fractions were calculated using the MacLab computer package.\nArterial smooth muscle preparations were prepared as described previously and treated with phenylephrine (1×10^−5M) until constriction plateaux were achieved. Following this a series of experiments were performed to address the pharmacological characterization of the novel peptide, kinestatin. 1) Separate dose response curves were constructed for bradykinin and kinestatin using concentrations of both peptides in the range of 10^−11 to 10^−5M. […] The preparations were prepared as described before. […] Following this, phenylephrine (1×10^−5M) was added to the antagonist solution and perfused for 10 min to develop contraction of the arterial smooth muscle. On obtaining stable plateaux of constriction, the perfusate was replaced by another containing phenylephrine, antagonist and bradykinin (1×10^−6M). During a 20 min perfusion period, changes in arterial pressure were recorded as described previously. In a second similar series of experiments, kinestatin (1×10^−8M) was added to each of the specific bradykinin receptor sub-type antagonist solutions prior to the procedure described above. Data were analysed by computer using Students t test available on the Graph Pad Prism™ programme."}, "[3]": {"tested_on": "human microvascular endothelial cells (HMEC-1)", "assay": "endothelial cell migration into 1 cm wound in cell monolayer", "assay_type": "cell-based", "protocol": "FIG. 9 is a graph comparing the ability of kinestatin (▪) and fumagillin (▾) to inhibit the migration of human microvascular endothelial cells (HMEC-1) into a wound in a dose- and time-dependent manner\nFIG. 10 is a time response curve showing the delay in complete closure of endothelial cell 1 cm wounds in the presence of kinestatin (▪) and non-treated control cells (▴).\nExpt. […] Kinestatin prolonged wound closure time by 100% from 7 h (control) to 14 h (treatment) (FIG. 10)."}, "[4]": {"tested_on": "endothelial tube structures on Matrigel matrix plates", "assay": "Matrigel tube formation assay", "assay_type": "cell-based", "settings": "FIG. 8", "from_the_text": "FIG. 8 is a graph comparing the ability of kinestatin (▪) and fumagillin (▴) to inhibit the formation of endothelial tube structures on Matrigel matrix plates."}, "[5]": {"molecular_target": "autologous receptor (of ornithokinin) cloned from chicken", "settings": "(Tyr^0)-radioiodinated ornithokinin as competing ligand; read-out: affinity; cited from earlier work"}, "[6]": {"tested_on": "recombinantly-expressed receptor (of ornithokinin)", "settings": "cited from earlier work"}, "B1-receptor": {"molecular_target": "T2, B1-receptor (Oryctolagus cuniculus, UniProt P48748)", "T2 construct": "in B1-receptor-rich preparations, such as the rabbit aorta; host or cells: rabbit aorta tissue preparation", "T2 sequence (P48748 1-352)": "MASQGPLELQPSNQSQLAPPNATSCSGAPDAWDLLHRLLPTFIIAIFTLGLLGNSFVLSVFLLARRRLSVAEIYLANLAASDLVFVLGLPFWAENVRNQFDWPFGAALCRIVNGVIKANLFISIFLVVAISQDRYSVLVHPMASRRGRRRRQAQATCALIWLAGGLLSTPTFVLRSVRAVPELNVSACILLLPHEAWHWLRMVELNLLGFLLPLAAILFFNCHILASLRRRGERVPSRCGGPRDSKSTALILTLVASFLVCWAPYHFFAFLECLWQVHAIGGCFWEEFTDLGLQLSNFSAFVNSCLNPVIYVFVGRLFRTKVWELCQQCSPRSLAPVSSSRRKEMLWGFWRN", "settings": "cited from earlier work"}}, "note": "Square brackets hold non-standard residues; d marks the D form. Ends that are not written are not given here. pGlu = O=C1CC[C@@H](C(=O)O)N1"}
{"molecule": "pGlu-Ile-Pro-Gly-Leu-Gly-Pro-Leu-Arg.NH2 ([pGlu]IPGLGPLR-NH2; SMILES CC[C@H](C)[C@H](NC(=O)[C@@H]1CCC(=O)N1)C(=O)N1CCC[C@H]1C(=O)NCC(=O)N[C@@H](CC(C)C)C(=O)NCC(=O)N1CCC[C@H]1C(=O)N[C@@H](CC(C)C)C(=O)N[C@@H](CCCNC(=N)N)C(N)=O; listed as Bombina maxima) [kinestatin, bradykinin B2 receptor antagonist nonapeptide from skin secretion of Bombina maxima; synthetic replicate tested]", "values": [{"measurement": "cell proliferation", "setting": "[1]", "result": "profound effects on inhibition of cell proliferation"}, {"measurement": "myorelaxant activity", "setting": "[2]", "result": "devoid of myorelaxant activity"}, {"measurement": "potency as bradykinin antagonist relative to Leu^8 bradykinin", "setting": "bradykinin B2 receptors", "result": "~10", "unit": "×"}, {"measurement": "inhibition of bradykinin-induced relaxation in HOE 140-treated preparations", "setting": "bradykinin B2 receptors; kinestatin 1×10^−8M added, HOE 140 3×10^−7M, p=0.0015, n=6", "result": "significant inhibition"}, {"measurement": "inhibition of bradykinin-induced relaxation in des Arg HOE 140-treated preparations", "setting": "bradykinin B2 receptors; kinestatin 1×10^−8M added, des Arg HOE 140 3×10^−7M, p=0.033, n=6", "result": "significant inhibition"}, {"measurement": "effect on bradykinin-induced relaxation dose response curve", "setting": "bradykinin B2 receptors; kinestatin at 1×10^−8M, FIG. 4C", "result": "Virtual total abolition"}, {"measurement": "maximally inhibitory concentration", "setting": "bradykinin B2 receptors; prior addition, bradykinin dose response", "result": "10^−8 M"}, {"measurement": "receptor mediating the inhibition", "setting": "bradykinin B2 receptors; rat tail arterial smooth muscle", "result": "antagonism at B2 receptors"}, {"measurement": "block of maximal bradykinin relaxing activity", "setting": "bradykinin B2 receptors; ten nanomolar kinestatin, one micromolar bradykinin", "result": "almost totally blocked"}, {"measurement": "mechanism of inhibition", "setting": "bradykinin B2 receptors; within this concentration range", "result": "non-competitive mechanism"}, {"measurement": "maximal inhibitory effect on migration", "setting": "[3]; FIG. 9", "result": "same maximal inhibitory effect"}, {"measurement": "potency relative to fumagillin", "setting": "[3]; FIG. 9", "result": "more potent on a molar basis"}, {"measurement": "endothelial cell migration", "setting": "[3]; time to half closure of 1 cm wide wound", "result": "inhibition in endothelial cell migration"}, {"measurement": "wound closure time", "setting": "[3]; treatment, FIG. 10", "result": 14, "unit": "h"}, {"measurement": "prolongation of wound closure time", "setting": "[3]; versus control, FIG. 10", "result": 100, "unit": "%"}, {"measurement": "effect on tube formation", "setting": "[4]", "result": "inhibitory effect"}]}
{"molecule": "RPPGFTPLR [ornithokinin]", "values": [{"measurement": "Kd", "setting": "[5]", "result": 4.7, "unit": "nM"}]}
{"molecule": "Arg-Arg-Pro-Hyp-Gly-Thi-Ser-Tic-Oic-Arg [HOE-140]", "values": [{"measurement": "function at receptor", "setting": "[6]", "result": "partial agonist"}]}
{"molecule": "CO[C@@H]1[C@H](OC(=O)/C=C/C=C/C=C/C=C/C(=O)O)CC[C@]2(CO2)[C@H]1[C@@]1(C)O[C@@H]1CC=C(C)C", "note": "[fumagillin, reference compound]", "values": [{"measurement": "cell proliferation", "setting": "[1]", "result": "profound effects on inhibition of cell proliferation"}, {"measurement": "maximal inhibitory effect on migration", "setting": "[3]; FIG. 9", "result": "same maximal inhibitory effect"}, {"measurement": "effect on tube formation", "setting": "[4]", "result": "inhibitory effect"}]}
{"molecule": "RPPGFSPLR [Leu^8-bradykinin, bradykinin analogue, found in pickerel frog skin]", "values": [{"measurement": "antagonism of bradykinin and des-Arg^9 bradykinin", "setting": "B1-receptor; B1-receptor-rich preparations, rabbit aorta", "result": "potent antagonist"}, {"measurement": "bradykinin agonist activity", "setting": "B1-receptor; previous pharmacological studies", "result": "devoid of bradykinin agonist activity"}]}
